One data set has as its system Helicobacter pylori. On the set-up: method as in PMID 16377035. Conditions: cited from earlier work.
The subject of the next data set is B. subtilis TISTR 001. Kind of data set: Antibacterial microbroth dilution MIC, B. subtilis. The data set is classed as cell-based. Conditions: Bacillus subtilis, TISTR001; Gram-positive; microbroth dilution, 37 °C, 24 h; read-out: MIC B. subtilis. As to the method:
(§1) The antibacterial activities of coumarin derivatives 10, 12, 13, 14a–g, and 15 were evaluated against five reference standard bacteria, both gram-positive and gram-negative: B. cereus TISTR 2372, B. subtilis TISTR 001, S. aureus TISTR 2392, E. coli TISTR 073, and S. typhimurium TISTR 2519, using a standard microbroth dilution method.
(§2) The MIC values of coumarin derivatives 10, 12, 13, 14a–g, and 15 were determined through the microbroth dilution method in 96-well microtitre plates. The bacterial cultures were prepared from overnight cultures on nutrient broth (NB) at 37 °C for 24 h by diluting in NB compared with 0.5 McFarland. Coumarin derivatives 10, 12, 13, 14a–g, and 15 (5000 µg/mL) were prepared in EtOH, and 128 µg/mL of these were added to the first wells. Two-fold serial dilutions were prepared, and final concentrations of 128 to 1 µg/mL were achieved. The positive controls for penicillin G were determined, with the final concentrations from 128 to 1 µg/mL. In addition, an extra row of EtOH was used as a vehicle control to determine its possible inhibitory activity. Finally, 10 µL of bacterial suspension was added to each well. After the bacteria were incubated at 37 °C for 24 h, the microtitre plates were visually examined for bacterial growth; the growth rate was monitored at the optical density at 600 nm with a microplate reader.
For orientation: In broth dilution the organism is exposed to a series of concentrations in liquid medium.

The next data set relates to HeLa cancer cell line. Kind of data set: MTT cell viability assay, HeLa. The data set is classed as cell-based. Conditions: Homo sapiens, HeLa, 24 h, cancer cell line; MTT assay, 24 h treatment; read-out: IC50 HeLa. As for the experimental part:
(§3) The cell viability assays of coumarin derivatives 10, 12, 13, 14a–g, and 15 were conducted against three cancer cell lines (HepG2, HeLa, and MDA-MB-231) and one normal cell line (LLC-MK2) using an MTT assay.
(§4) Stock solutions of coumarin derivatives 10, 12a, 13, 14a–g, and 15 were prepared in EtOH at a concentration of 5000 µg/mL. Prior to use, the stock solutions were further diluted to 128 µg/mL and added to the first wells. Two-fold serial dilutions were prepared, and final concentrations of 128 to 1 µg/mL in culture medium were achieved. Cells were seeded at a density of 5 × 10^4 cells/well in a 96-well plate and incubated for 16 h, followed by treatment with the test compounds. The control culture contained the carrier solvent of 2.5% dimethyl sulfoxide (DMSO). After 24 h, HepG2, HeLa, MDA-MB-231, and LLC-MK2 cells were then incubated with MTT (500 μg/mL) for 4 h. Then, DMSO was added to dissolve the blue formazan crystals formed, which were formed as a result of the action of cellular oxidoreductase enzymes on the MTT dye. Finally, the optical density at 450 nm was determined using a microplate reader.
For orientation: Formazan colour is commonly taken as a measure of viable cells.

Data set [1] deals with S. typhimurium TISTR 2519. Kind of data set: Antibacterial microbroth dilution MIC, S. typhimurium. In kind it is cell-based. Conditions: Salmonella enterica; Gram-negative; microbroth dilution, 37 °C, 24 h; read-out: MIC S. typhimurium. As to the method: as §1, §2
In another data set the test system is S. aureus TISTR 2392. Kind of data set: Antibacterial microbroth dilution MIC, S. aureus. In kind it is cell-based. Conditions: Staphylococcus aureus, TISTR2392; Gram-positive; microbroth dilution, 37 °C, 24 h; read-out: MIC S. aureus. As to the method: as §1, §2
The subject of the next data set is B. cereus TISTR 2372. Kind of data set: Antibacterial microbroth dilution MIC, B. cereus. In kind it is cell-based. Conditions: Bacillus cereus, TISTR2372; Gram-positive; microbroth dilution, 37 °C, 24 h; read-out: MIC B. cereus. As to the method:
as §1, §2

The test system of the next data set is LLC-MK2 normal cell line. Kind of data set: MTT cell viability assay, LLC-MK2 normal cells. The data set is classed as cell-based. Conditions: Macaca mulatta, LLC-MK2; normal cell line; MTT assay, 24 h treatment; read-out: IC50 LLC-MK2. As to the method: as §3, §4
A further data set concerns HepG2 cancer cell line. Kind of data set: MTT cell viability assay, HepG2. The data set is classed as cell-based. Conditions: Homo sapiens, HepG2, 24 h, cancer cell line; MTT assay, 24 h treatment; read-out: IC50 HepG2. As for the experimental part:
as §3, §4

The test system of a further data set is E. coli TISTR 073. Kind of data set: Antibacterial microbroth dilution MIC, E. coli. Conditions: Escherichia coli, TISTR073; Gram-negative; microbroth dilution, 37 °C, 24 h; read-out: MIC E. coli. In kind it is cell-based. As for the experimental part:
as §1, §2

Converted amounts (≈) assume the structure as drawn.

Turning to `O=C(O)c1ccc(NC(=O)c2cc3ccccc3oc2=O)cc1` [4a], the “MIC H. pylori” value with Helicobacter pylori was 1 µg/mL (≈ 3.23 µM).

A word on the MIC: it is the least concentration at which growth counts as inhibited. In general, IC50 refers to the concentration that inhibits the measured activity by half. The term melting point denotes the temperature of the solid-liquid transition. `CC(C)=CCc1cc2cc(C(=O)O)c(=O)oc2cc1O` [compound 13, 3-carboxy-6-(3-methyl-2-butenyl)-7-hydroxy-coumarin] came in with a melting point of 237 to 238 °C. Moreover, the MIC with B. subtilis TISTR 001 is 128 µg/mL (≈ 467 µM). In addition, the half-inhibitory concentration (IC50) in the data set with HeLa cancer cell line came out at 26.4 µM. The MIC in [1] is > 128 µg/mL. The MIC in the data set on S. aureus TISTR 2392 stood at 64 µg/mL (≈ 233 µM). For the same molecule, in the data set with B. cereus TISTR 2372, the MIC came out at 32 µg/mL (≈ 117 µM). For the same molecule, in the data set with LLC-MK2 normal cell line, the IC50 is 38 µM. For the same molecule, the IC50 in the data set with HepG2 cancer cell line worked out at 81.7 µM. For the same molecule, the MIC with E. coli TISTR 073 is > 128 µg/mL.

Source of the values: publication PMC8002271, “Synthesis and Biological Activity Evaluation of Coumarin-3-Carboxamide Derivatives” (Molecules, 2021).
